Assay [1] concerns P-gp. As to the kind of experiment: native mass spectrometry of P-gp with CsA, nucleotides and lipid (Example 2). Type of assay: binding. As to conditions: for number of nucleotides bound to P-gp: 1 mM MgCl2 plus 50 μM ATP or ATPγS, FIG. 2c. The method, then: His-tagged P-glycoprotein was expressed in P.pastoris and purified according to a protocol described previously (see Aller et al, supra). Lipids were purchased from Avanti Polar Lipids.
Before analysis, P-gp was buffer exchanged into 200 mM ammonium acetate pH 7 supplemented with 0.02% n-dodecyl-β-D-maltoside (DDM), using micro BioSpin-6 devices (Bio-Rad). Lipids were first prepared at 2 mM in chloroform and then diluted to 20 μM in 200 mM ammonium acetate pH 7 supplemented with 0.02% DDM. Cyclosporin was first dissolved at 8 mM in methanol and then diluted to 5-100 μM in 200 mM ammonium acetate pH 7 supplemented with 0.02% DDM. MS spectra were acquired on a Q-TOF2 (Micromass) modified for the transmission and detection of high mass complexes. Samples were introduced in the ion-source via gold-coated nanoflow capillaries. […] Micelle transmission was enhanced by increasing the Pirani pressure to 30 mbar. […] Spectra were analysed with Massign software.

The test system of assay [2] is mouse P-gp. The experiment in a line: nanoelectrospray MS / IM-MS of P-gp pre-incubated with drug compounds (Example 1). Type of assay: binding. Conditions: 2-3 mg/ml P-gp pre-incubated with 1-10 molar equivalents of test compound; FIG. 1. The procedure:
P-glycoprotein (P-gp) was expressed and purified as reported previously (Aller et al, Science, 2009, 323, 1718-1722). In this method, P-gp was expressed in P. pastoris strain and purified as a his-tagged protein from the membranes solubilised with Triton X-100. Buffer was exchanged by washing with buffer containing 20 mM imidazole, 0.04% sodium cholate and 0.0675% β-DDM. The protein was concentrated, subjected to gel filtration chromatography and assayed for purity by SDS-PAGE.
An aliquot (30 μl) of mouse P-gp solution (9 mg/ml) in 0.07% β-DDM, 0.04% sodium cholate, 100 mM NaCl, 0.2 mM TCEP, 20 mM Hepes, pH 7.5 was buffer-exchanged using a membrane filter and diluted 3-fold in 300 mM ammonium acetate, pH 7.5. Spectra of P-gp with drug compounds were obtained by first pre-incubating 2-3 mg/ml P-gp protein with 1-10 molar equivalents of the test compound for 15 minutes to overnight prior to nanoelectrospray ionisation mass spectrometry.
Mass spectrometry measurements were carried out on a Synapt HDMS (Waters, Manchester, UK) quadrupole-S2 ion-trap-IM-MS instrument modified for transmission and detection of ions at high m/z ratios. Aliquots of complex-containing solutions (2 μL) in detergent were introduced via gold-coated nanoflow electrospray capillaries. […]

Regarding `Nc1ncnc2c1ncn2[C@@H]1O[C@H](COP(=O)(O)OP(=O)(O)OP(=O)(O)O)[C@@H](O)[C@H]1O` [ATP, adenosine triphosphate], in assay [1], the “number of nucleotides bound to P-gp” value is given as “one or two”.

Take `CC(C)[C@H]1NC(=O)c2c[se]c(n2)[C@@H](C(C)C)NC(=O)c2c[se]c(n2)[C@@H](C(C)C)NC(=O)c2c[se]c1n2` [QZ59Se, RRR]: the “effect of drug binding on the mass spectrum of P-gp” value in assay [2] is on record as “altered the mass spectrum of the membrane protein”.

As to cardiolipin 14:1(3)-15:1, the “number of molecules bound to P-gp already bound to one ATP or ATPγS” value in assay [1] (first incubated with ATP or ATPγS, then with cardiolipin or CsA, FIG. 3a, b) is reported as “one or two”.

For the molecule `Nc1ncnc2c1ncn2[C@@H]1O[C@H](COP(=O)(O)OP(=O)(O)OP(O)(O)=S)[C@@H](O)[C@H]1O` [ATPγS], the “number of nucleotides bound to P-gp” value in assay [1] was “one or two”.
